The Deep4Chem optical property database
Blank lines part the entries; values can stand above or below the compound they belong to.

Assay: solvent given as SMILES

- emission maximum (in ClC(Cl)Cl): 461 nm
SMILES: Fc1ccc(C2=NC(c3ccccc3)C(N(c3ccccc3)c3ccccc3)S2)cc1 (configuration not stated)

- emission maximum (in ClCCl): 537 nm
SMILES: CCc1ccccc1-c1c2ccccc2c(C#Cc2ccccc2)c2cc3ccccc3cc12

- emission maximum (in ClCCl): 652 nm
SMILES: COc1ccccc1C1=[N+]2C(=C(c3ccccc3)c3c4ccccc4c(-c4ccccc4OC)n3[B-]2(F)F)c2ccccc21

- emission maximum (in ClCCl): 478 nm
SMILES: CCN(CC)c1ccc2cc(-c3ccc(-c4ccc(-c5cc6ccccc6oc5=O)cc4)cc3)c(=O)oc2c1

SMILES: Cc1ccccc1
- emission maximum (in C1CCCCC1): 286.62 nm

- emission maximum (in CC#N): 415 nm
- emission maximum (in CN(C)C=O): 433 nm
- emission maximum (in ClCCl): 432 nm
SMILES: CCN(CC)c1ccc(/C=N/CC/N=C/c2ccc(N(CC)CC)cc2O)c(O)c1

- emission maximum (in ClCCl): 501 nm
SMILES: CCc1cccc(CC)c1-c1c2ccccc2c(-c2c(CC)cccc2CC)c2cc3ccccc3cc12

- emission maximum (in CO): 509 nm
SMILES: c1ccc(N(c2ccccc2)c2ccc(-c3ncc(-c4ccc(-c5ccc(-c6cnc(-c7ccc(N(c8ccccc8)c8ccccc8)cc7)s6)s5)s4)s3)cc2)cc1

SMILES: CCCCCCOc1ccc(C#Cc2ccc(C#CC#Cc3ccc(C#Cc4ccc(OCCCCCC)c(OCCCCCC)c4)c4nsnc34)c3nsnc23)cc1OCCCCCC
- emission maximum (in CN(C)C=O): 638 nm
- emission maximum (in COc1ccccc1): 555 nm
- emission maximum (in Cc1ccccc1): 528 nm
- emission maximum (in ClC(Cl)Cl): 563 nm
- emission maximum (in ClCCCl): 591 nm
- emission maximum (in ClCCl): 582 nm

- emission maximum (in C1CCCCC1): 425 nm
SMILES: COc1cccc(OC)c1-c1c2ccccc2c(-c2c(OC)cccc2OC)c2ccccc12

- emission maximum (in ClCCl): 447 nm
SMILES: COc1ccc(-c2cccc3ncc(-c4ccc(C#N)cc4)n23)cc1

SMILES: O=c1c2ccccc2oc2cc(N3c4ccccc4C4(c5ccccc5Oc5ccccc54)c4ccccc43)ccc12
- emission maximum (in Cc1ccccc1): 472 nm

- emission maximum (in CCO): 687 nm
SMILES: CCN(C(C)=O)c1cc2c(cc1C)C(c1ccccc1C(=O)O)=C1CCCC(/C=C/C3=[N+](C)c4ccccc4C3(C)C)=C1O2

- emission maximum (in C1CCOC1): 557 nm
- emission maximum (in CC#N): 617 nm
- emission maximum (in CCCCCCC): 480 nm
- emission maximum (in CS(C)=O): 626 nm
- emission maximum (in ClCCl): 583 nm
SMILES: C(=C\c1cnc2ccccc2n1)/c1ccc(N2CCCCC2)cc1

SMILES: COc1ccc(-c2ccc(-c3ccc(C#N)s3)s2)cc1
- emission maximum (in C1CCCCC1): 445 nm
- emission maximum (in C1COCCO1): 455 nm
- emission maximum (in CC#N): 476 nm
- emission maximum (in CC(C)O): 471 nm
- emission maximum (in CCCCO): 471 nm
- emission maximum (in CCO): 474 nm
- emission maximum (in CCOC(C)=O): 461 nm
- emission maximum (in CN(C)C=O): 479 nm
- emission maximum (in CO): 476 nm
- emission maximum (in CS(C)=O): 484 nm
- emission maximum (in Cc1ccccc1): 450 nm
- emission maximum (in ClC(Cl)Cl): 465 nm
- emission maximum (in ClCCl): 468 nm
- emission maximum (in O): 529 nm

- emission maximum (in CC#N): 500 nm
SMILES: C[C@]12SC(=O)C=C1c1nc(-c3ccc(Cl)cc3Cl)[nH]c1C1=CC(=O)S[C@@]12C

SMILES: CCOC(=O)/C(C#N)=C\c1ccc2c(c1)c1ccccc1n2-c1ccc(OC)cc1
- emission maximum (in C1CCOC1): 460 nm
- emission maximum (in CC#N): 522 nm
- emission maximum (in CC(C)=O): 508 nm
- emission maximum (in CCOC(C)=O): 479 nm
- emission maximum (in CO): 532 nm
- emission maximum (in CS(C)=O): 542 nm
- emission maximum (in Cc1ccccc1): 455 nm
- emission maximum (in ClC(Cl)Cl): 486 nm

SMILES: C(#Cc1ccc2ncsc2c1)c1ccc(N(c2ccccc2)c2ccccc2)cc1
- emission maximum (in Cc1ccccc1): 428 nm

- emission maximum (in ClCCl): 405 nm
SMILES: c1ccc2c(-c3cc4c(ccc5sccc54)s3)cccc2c1

SMILES: N#Cc1ccc(C#Cc2ccc3ccc4ccc(C#Cc5ccc(C#N)cc5)c5ccc2c3c45)cc1
- emission maximum (in C1COCCO1): 443.3 nm
- emission maximum (in CC(C)=O): 445.8 nm
- emission maximum (in CCCCCC): 435.5 nm
- emission maximum (in CCCCCCO): 448 nm
- emission maximum (in CCO): 445.5 nm
- emission maximum (in CCOC(C)=O): 442.4 nm
- emission maximum (in CO): 445.3 nm
- emission maximum (in Cc1ccccc1): 446.4 nm
- emission maximum (in ClCCl): 448.8 nm

SMILES: c1ccc(-c2nc(-c3ccccc3)nc(-c3ccc(-n4c5ccccc5c5cc(-n6c7ccccc7c7ccccc76)ccc54)c4c5ccccc5n(-c5ccccc5)c34)n2)cc1
- emission maximum (in C1CCOC1): 496.59 nm
- emission maximum (in Cc1ccccc1): 429 nm
- emission maximum (in ClCCl): 531.36 nm

- emission maximum (in CCO): 644 nm
- emission maximum (in O): 652 nm
SMILES: CC/[NH+]=c1\cc2oc3cc(NCCC(=O)NC(CCC(=O)OC)C(=O)OC)c4ccccc4c3nc-2cc1C (configuration not stated)

- emission maximum (in ClCCl): 485 nm
SMILES: C(=C\c1ncc(-c2ccc(OCc3ccccc3)c(OCc3ccccc3)c2)o1)/c1cccc(N2CCCC2)c1

- emission maximum (in C1CCCCC1): 593 nm
- emission maximum (in CC#N): 591 nm
- emission maximum (in CCO): 595 nm
- emission maximum (in CCOC(C)=O): 591.5 nm
- emission maximum (in CO): 593.5 nm
- emission maximum (in OCC(F)(F)F): 588 nm
SMILES: Cc1ccc(C2=C3C=C(I)C(I)=[N+]3[B-](F)(F)n3c2cc(I)c3I)cc1

- emission maximum (in ClCCl): 500 nm
SMILES: Cc1cc(=O)cc(-c2ccc(-c3nc4ccccn4c3NC3CCCCC3)cc2)o1

SMILES: Cc1cc(C)c(B(c2c(C)cc(C)cc2C)N2c3ccccc3C(C)(C)c3ccccc32)c(C)c1
- emission maximum (in C1CCCCC1): 533 nm
- emission maximum (in Cc1ccccc1): 558 nm
- emission maximum (in ClCCl): 580 nm

- emission maximum (in ClCCl): 428 nm
SMILES: c1ccc2c(-n3c(-c4ccc(-c5ccc(-c6nc7c8ccccc8c8ccccc8c7n6-c6cccc7ccccc67)c6ccccc56)c5ccccc45)nc4c5ccccc5c5ccccc5c43)cccc2c1

SMILES: COc1cc(OC)cc(C2=[O+][B-](F)(F)OC(c3ccc4cc(OC)ccc4c3)=C2)c1
- emission maximum (in CC#N): 550.5 nm
- emission maximum (in CC(C)=O): 533.32 nm
- emission maximum (in CCCCCC): 430.95 nm
- emission maximum (in Cc1ccccc1): 475.78 nm
- emission maximum (in ClCCl): 520 nm

- emission maximum (in CO): 776 nm
- emission maximum (in O): 771 nm
SMILES: CC1(C)C(/C=C/C=C/C=C/C=C2/N(CS(=O)(=O)[O-])c3ccc(S(=O)(=O)[O-])cc3C2(C)C)=[N+](CS(=O)(=O)[O-])c2ccc(S(=O)(=O)[O-])cc21

- emission maximum (in CC#N): 397 nm
SMILES: CN(C)c1ccc(-c2nc3ccccc3n2-c2ccccc2)cc1

- emission maximum (in ClC(Cl)Cl): 615 nm
SMILES: CC(C)(C)c1ccc(Oc2cc3c4c(cc(Oc5ccc(C(C)(C)C)cc5)c5c6c(Oc7ccc(C(C)(C)C)cc7)cc7c8c(cc(Oc9ccc(C(C)(C)C)cc9)c(c2c45)c86)C(=O)OC7=O)C(=O)OC3=O)cc1

SMILES: c1ccc(-c2ccc(-c3nc(-n4c5ccccc5c5ccc6c7ccccc7n(-c7ccccc7)c6c54)nc(-n4c5ccccc5c5ccc6c7ccccc7n(-c7ccccc7)c6c54)n3)cc2)cc1
- emission maximum (in Cc1ccccc1): 495 nm
- emission maximum (in O=P(c1ccccc1)(c1ccccc1)c1ccccc1Oc1ccccc1P(=O)(c1ccccc1)c1ccccc1): 492 nm

- emission maximum (in ClCCl): 415 nm
SMILES: CCCCC(CC)COc1ccc2nc(-c3ccc(-c4c(C)noc4C)s3)sc2c1 (configuration not stated)

SMILES: CCCCN1C(=O)c2cccc3c(N(C)C)ccc(c23)C1=O
- emission maximum (in Cc1ccccc1): 486 nm

SMILES: CN(C)c1ccc2cc(C3=[O+][B-](F)(F)OC(c4ccccc4)=C3)ccc2c1
- emission maximum (in C1CCOC1): 643 nm
- emission maximum (in CC#N): 406 nm
- emission maximum (in CC(C)=O): 682 nm
- emission maximum (in CS(C)=O): 422 nm
- emission maximum (in Cc1ccccc1): 573 nm
- emission maximum (in ClC(Cl)Cl): 613 nm
- emission maximum (in ClCCl): 650 nm

- emission maximum (in ClCCl): 360 nm
SMILES: c1ccc(-n2c3ccccc3c3cc(-c4cccc(-n5c6ccccc6c6ncccc65)c4)ccc32)cc1

- emission maximum (in C1CCCCC1): 329 nm
SMILES: CCCCCCCC[Si](C)(C)c1cccc2ccccc12

SMILES: CCOc1cc2c(cc1/C=C/C1=CC(=C(C#N)C#N)CC(C)(C)C1)c1ccccc1n2CC
- emission maximum (in C1CCOC1): 610 nm
- emission maximum (in CC#N): 629 nm
- emission maximum (in CCO): 632 nm
- emission maximum (in CCOC(C)=O): 591 nm
- emission maximum (in CN(C)C=O): 635 nm
- emission maximum (in CS(C)=O): 641 nm
- emission maximum (in Cc1ccccc1): 578 nm
- emission maximum (in ClC(Cl)Cl): 608 nm
- emission maximum (in ClCCl): 617 nm
